Literature values, collected in patent publication US20260335284A1, “STABLE MITOMYCIN CONCENTRATES” (STEPS BIOSCIENCES, INC., priority 2022, published 2026).

Conditions: EP 0415430A1

- Stability in water and in PEG (in water and also in PEG): very unstable
- Stability in PG with finite percentage of water (5%) (solutions at 5 mg/mL): most stable
SMILES: CO[C@@]12[C@H](COC(N)=O)C3=C(C(=O)C(C)=C(N)C3=O)N1C[C@@H]1N[C@@H]12 [MMC, Mitomycin C]
